Values quoted from earlier work as cited in patent publication US20210059959A1, “USE OF CANNABINOIDS IN THE TREATMENT OF MENTAL DISORDERS” (GW Pharma Limited, priority 2015, published 2021).

Tested on: positive or negative symptoms of schizophrenia
Settings: placebo-controlled clinical trial; cited from earlier work

Cc1c(C(=O)NN2CCCCC2)nn(-c2ccc(Cl)cc2Cl)c1-c1ccc(Cl)cc1 [rimonabant]
Effect on positive or negative symptoms of schizophrenia: no effect
